From the NIST ThermoML archive (doi:10.1016/j.tca.2010.09.004)

Test: xn = mol fraction of the nth substance listed
Settings: 101 kPa, Liquid; for speed of sound: Sing-around technique in a fixed-path interferometer; for mass density: Vibrating tube method

CCN(CC)CC [triethylamine] + CCC(C)=O
Settings	mass density [kg/m3]	speed of sound [m/s]
293.15 K, x2 = 0.0684	730.666	1134.5
293.15 K, x2 = 0.1169	733.08	1136
293.15 K, x2 = 0.1627	735.417	1138
293.15 K, x2 = 0.2218	738.705	1140.6
293.15 K, x2 = 0.2686	741.43	1143
293.15 K, x2 = 0.3141	744.214	1145.5
293.15 K, x2 = 0.3549	746.818	1147.9
293.15 K, x2 = 0.4154	750.867	1151.7
293.15 K, x2 = 0.4636	754.264	1155
293.15 K, x2 = 0.5054	757.343	1158.2
293.15 K, x2 = 0.5572	761.332	1162.3
293.15 K, x2 = 0.61	765.576	1166.7
293.15 K, x2 = 0.6519	769.122	1170.6
293.15 K, x2 = 0.7051	773.808	1175.7
293.15 K, x2 = 0.7603	778.962	1181.4
293.15 K, x2 = 0.8057	783.447	1186.5
293.15 K, x2 = 0.8586	788.929	1192.8
293.15 K, x2 = 0.9019	793.679	1198.3
293.15 K, x2 = 0.9451	798.586	1204.1
298.15 K, x2 = 0.0709	725.999	1112.7
298.15 K, x2 = 0.1149	728.152	1114.2
298.15 K, x2 = 0.158	730.378	1115.9
298.15 K, x2 = 0.2181	733.668	1118.5
298.15 K, x2 = 0.261	736.151	1120.7
298.15 K, x2 = 0.3203	739.738	1123.9
298.15 K, x2 = 0.3605	742.292	1126.3
298.15 K, x2 = 0.4159	745.987	1129.9
298.15 K, x2 = 0.4607	749.113	1133
298.15 K, x2 = 0.5106	752.756	1136.7
298.15 K, x2 = 0.5701	757.323	1141.5
298.15 K, x2 = 0.6039	760.048	1144.5
298.15 K, x2 = 0.66	764.735	1149.5
298.15 K, x2 = 0.7122	769.362	1154.6
298.15 K, x2 = 0.7604	773.883	1159.8
298.15 K, x2 = 0.8023	777.983	1164.4
298.15 K, x2 = 0.8437	782.252	1169.6
298.15 K, x2 = 0.8921	787.444	1175.7
298.15 K, x2 = 0.9456	793.453	1182.8
303.15 K, x2 = 0.0686	721.221	1092.2
303.15 K, x2 = 0.1149	723.47	1093.7
303.15 K, x2 = 0.1643	726.011	1095.6
303.15 K, x2 = 0.2101	728.487	1097.6
303.15 K, x2 = 0.2639	731.565	1100.3
303.15 K, x2 = 0.3102	734.326	1102.7
303.15 K, x2 = 0.3502	736.816	1105.1
303.15 K, x2 = 0.3869	739.189	1107.4
303.15 K, x2 = 0.45	743.482	1111.7
303.15 K, x2 = 0.5081	747.667	1116
303.15 K, x2 = 0.5652	752.023	1120.6
303.15 K, x2 = 0.6051	755.192	1124
303.15 K, x2 = 0.6561	759.446	1128.7
303.15 K, x2 = 0.7087	764.061	1134
303.15 K, x2 = 0.763	769.188	1140
303.15 K, x2 = 0.7945	772.2	1143.5
303.15 K, x2 = 0.8542	778.238	1150.5
303.15 K, x2 = 0.8987	783.012	1156.3
303.15 K, x2 = 0.95	788.818	1163.4
